Assay results from patent publication US20110190127A1, “NOVEL HERBICIDES” (SYNGENTA CROP PROTECTION, INC., priority 2008, published 2011).

How the values were obtained:
Assay type in all cases: in vivo
[1] = system: Alopecurus myosuroides (ALOMY); experiment: Pre-emergence herbicidal activity, glasshouse pot test; conditions: Rate 500 g/ha; sprayed after one day cultivation, evaluated 20 days later; 100=total damage to plant, 0=no damage to plant
Method: (§1) Monocotyledonous and dicotyledonous test plants were sown in standard soil in pots. After cultivation for one day (pre-emergence) or after 10 days cultivation (post-emergence) under controlled conditions in a glasshouse, the plants were sprayed with an aqueous spray solution derived from the formulation of the technical active ingredient in 0.6 ml acetone and 45 ml formulation solution containing 10.6% Emulsogen EL (Registry number 61791-12-6), 42.2% N-methyl pyrrolidone, 42.2% dipropylene glycol monomethyl ether (Registry number 34590-94-8) and 0.2% X-77 (Registry number 11097-66-8). The test plants were then grown in a greenhouse under optimum conditions until, 15 days later for post-emergence and 20 days for pre-emergence, the test was evaluated (100=total damage to plant; 0=no damage to plant). Test Plants: Alopecurus myosuroides (ALOMY), Avena fatua (AVEFA), Lolium perenne (LOLPE), Setaria faberi (SETFA), Digitaria sanguinalis (DIGSA), Echinochloa crus-galli (ECHCG)

[2] = system: Avena fatua (AVEFA); experiment: as above; conditions: Rate 500 g/ha; sprayed after one day cultivation, evaluated 20 days later; 100=total damage to plant, 0=no damage to plant
Method: as §1

[3] = system: Digitaria sanguinalis (DIGSA); experiment: as above; conditions: Rate 500 g/ha; sprayed after one day cultivation, evaluated 20 days later; 100=total damage to plant, 0=no damage to plant
Method: as §1

[4] = system: Echinochloa crus-galli (ECHCG); experiment: as above; conditions: Rate 500 g/ha; sprayed after one day cultivation, evaluated 20 days later; 100=total damage to plant, 0=no damage to plant
Method: as §1

[5] = system: Lolium perenne (LOLPE); experiment: as above; conditions: Rate 500 g/ha; sprayed after one day cultivation, evaluated 20 days later; 100=total damage to plant, 0=no damage to plant
Method: as §1

[6] = system: Setaria faberi (SETFA); experiment: as above; conditions: Rate 500 g/ha; sprayed after one day cultivation, evaluated 20 days later; 100=total damage to plant, 0=no damage to plant
Method: as §1

[7] = system: Alopecurus myosuroides (ALOMY); experiment: Post-emergence herbicidal activity, glasshouse pot test; conditions: Rate 500 g/ha; sprayed after 10 days cultivation, evaluated 15 days later; 100=total damage to plant, 0=no damage to plant
Method: as §1

[8] = system: Avena fatua (AVEFA); experiment: as above; conditions: Rate 500 g/ha; sprayed after 10 days cultivation, evaluated 15 days later; 100=total damage to plant, 0=no damage to plant
Method: as §1

[9] = system: Digitaria sanguinalis (DIGSA); experiment: as above; conditions: Rate 500 g/ha; sprayed after 10 days cultivation, evaluated 15 days later; 100=total damage to plant, 0=no damage to plant
Method: as §1

[10] = system: Echinochloa crus-galli (ECHCG); experiment: as above; conditions: Rate 500 g/ha; sprayed after 10 days cultivation, evaluated 15 days later; 100=total damage to plant, 0=no damage to plant
Method: as §1

[11] = system: Lolium perenne (LOLPE); experiment: as above; conditions: Rate 500 g/ha; sprayed after 10 days cultivation, evaluated 15 days later; 100=total damage to plant, 0=no damage to plant
Method: as §1

[12] = system: Setaria faberi (SETFA); experiment: as above; conditions: Rate 500 g/ha; sprayed after 10 days cultivation, evaluated 15 days later; 100=total damage to plant, 0=no damage to plant
Method: as §1

| Compound | Pre-Emergence Activity ALOMY [1] | Pre-Emergence Activity AVEFA [2] | Pre-Emergence Activity DIGSA [3] | Pre-Emergence Activity ECHCG [4] | Pre-Emergence Activity LOLPE [5] | Pre-Emergence Activity SETFA [6] | Post-Emergence Activity ALOMY [7] | Post-Emergence Activity AVEFA [8] | Post-Emergence Activity DIGSA [9] | Post-Emergence Activity ECHCG [10] | Post-Emergence Activity LOLPE [11] | Post-Emergence Activity SETFA [12] |
| --- | --- | --- | --- | --- | --- | --- | --- | --- | --- | --- | --- | --- |
| CCc1ccc(-c2ccc(Cl)cc2Cl)cc1C1=C(Cl)C(C)(C)OC(C)(C)C1=O [Compound A1] | 10 | 0 | 70 | 0 | 20 | 0 | 40 | 50 | 100 | 100 | 60 | 60 |
| CCc1ccc(-c2ccc(Cl)cc2Cl)cc1C1=C(SC)C(C)(C)OC(C)(C)C1=O [Compound A2] | 0 | 0 | 20 | 20 | 20 | 10 | 0 | 0 | 0 | 20 | 0 | 10 |
